Consider two compounds from article PMC11359794, “Amorphous Polymer–Phospholipid Solid Dispersions for the Co-Delivery of Curcumin and Piperine Prepared via Hot-Melt Extrusion” (Pharmaceutics, 2024).

SMILES strings stand for the structures. ≈ marks a conversion by molar mass, not a printed value. Read-outs that look alike come from different tables or passages of the source. Marks after values point to notes of the source that are not given here.

Series [1] in a line: Solubility studies (excess powder, 24 h, 25 °C, HPLC). Type of series: physicochemical. As to conditions: for solubility at 24 h: 25 °C; for Solubility classification: based on solubility test at pH 1.2 and pH 6.8, crystalline compounds. The text has this: HPLC was used to measure the concentrations of piperine and curcumin in samples taken during permeability, dissolution, and solubility investigations. A Shimadzu LC-2050C (Shimadzu Corp., Kyoto, Japan) was equipped with a diode array detector (DAD). A Dr. Maisch ReproSil-Pur Basic-C18 100 Å column with a 5 μm particle size and a 100 × 4.60 mm size (Dr. Maisch, Ammerbuch-Entringen, Germany) was used as a stationary phase. HPLC-grade methanol/0.1% acetic acid (85:15 v/v) was used as the mobile phase. The mobile phase was vacuum filtered through a 0.45 μm nylon filter (Phenomenex, Torrance, CA, USA). The analysis parameters were as follows: a flow rate of 0.3 mL/min, a wavelength of 420 nm for curcumin and 340 nm for piperine, and a column temperature of 30 °C. The injection volume differed depending on the assay. […] The duration of the run was 9 min. […] Chromatograms (Figure S1) and method validation parameters (Table S1) were added to the Supplementary Materials. The following steps were used to prepare phosphate buffer at pH 6.8: In a 1000 mL volumetric flask, 250 mL of 0.2 N potassium dihydrogen phosphate solution was added, followed by 112 mL of a 0.2 N sodium hydroxide solution. Purified water was added to make the volume up to 1000 mL. A hydrochloric acid solution with a pH of 1.2 was prepared according to the manufacturer's instructions ([…], Poznań, Poland) from the analytically weighed amount. A 10 mL glass tube was filled with an excess amount of powder (corresponding to 4 mg of each active substance). […] The obtained solutions were filtered, diluted 1:20 v/v with water, and filtered again through a 0.2 μm PTFE membrane filter (Sigma-Aldrich, St. Louis, MO, USA) and analyzed using the HPLC method described above.

Series [2] is described as follows: PAMPA permeability assay, gastrointestinal tract (GIT) model. It is filed as in vitro ADME. As to conditions: donor pH ≈6.8, 4 h, 37 °C. An excerpt: (§1) HPLC was used to measure the concentrations of piperine and curcumin in samples taken during permeability, dissolution, and solubility investigations. A Shimadzu LC-2050C (Shimadzu Corp., Kyoto, Japan) was equipped with a diode array detector (DAD). A Dr. Maisch ReproSil-Pur Basic-C18 100 Å column with a 5 µm particle size and a 100 × 4.60 mm size (Dr. Maisch, Ammerbuch-Entringen, Germany) was used as a stationary phase. HPLC-grade methanol/0.1% acetic acid (85:15 v/v) was used as the mobile phase. The mobile phase was vacuum filtered through a 0.45 µm nylon filter (Phenomenex, Torrance, CA, USA). The analysis parameters were as follows: a flow rate of 0.3 mL/min, a wavelength of 420 nm for curcumin and 340 nm for piperine, and a column temperature of 30 °C. The injection volume differed depending on the assay. […] The duration of the run was 9 min. […] Chromatograms (Figure S1) and method validation parameters (Table S1) were added to the Supplementary Materials. The Parallel Artificial Membrane Permeability Assay (PAMPA) models were used to study the permeability of the blood-brain barrier (BBB) and the gastrointestinal tract (GIT) in vitro. Two 96-well microfilter plates formed the sandwich. There were two chambers in the PAMPA system: the acceptor chamber at the top and the donor chamber at the bottom. […]

Series [3] can be described thus: PAMPA permeability assay, blood-brain barrier (BBB) model. It is filed as in vitro ADME. The settings on record: donor pH ≈7.4, 4 h, 37 °C.
Excerpt: as §1
Background: In PAMPA a lipid-coated filter parts donor from acceptor wells.

The nature of series [4]: Differential scanning calorimetry (glass transition, glass-forming ability). It is filed as physicochemical. The settings on record: heating–cooling–heating, different cooling rates; no crystallization during cooling and following heating. How it is done: A DSC 214 Polyma differential scanning calorimeter (Netzsch, Selb, Germany) was used for the thermal analysis. Samples of about 5–10 mg were put into crimped aluminum pans with a small hole in the lid. To remove water from the samples, they were heated to 80 °C and kept for 8 min at this temperature, cooled to 25 °C, and then heated again to 235 °C. Raw compounds were heated to 235 °C, cooled to 25 °C, and then heated once again to 235 °C to determine their glass transition temperature (Tg). […] The Tg was taken as the midpoint between onset and endpoint temperatures. Various heating–cooling–heating cycles were carried out to evaluate the glass-forming abilities.

For series [5] the following is noted: cited from earlier work.

In the case of `COc1cc(/C=C/C(=O)CC(=O)/C=C/c2ccc(O)c(OC)c2)ccc1O` [Curcumin], the solubility (as a rule, how much of the substance goes into solution per volume) at 24 h in series [1] (HCl solution, pH 1.2 HCl, read-out: Solubility, Curcumin Conc.) came out at 0.11 ± 0.01 µg/mL (≈ 0.299 µM). Further, in series [1], the Solubility classification result was “practically insoluble”. Further, the figures for the “Permeability, Curcumin Conc. in the acceptor solution” value in series [2] and in series [3] were 0.00061 ± 0.000038 ^g mg/mL and 0.00016 ± 0.000057 ^f mg/mL, respectively. Also, the Glass-forming ability result in series [4] is “good glass-forming ability”.
On to `O=C(/C=C/C=C/c1ccc2c(c1)OCO2)N1CCCCC1` [Piperine], for which the solubility at 24 h in series [1] (HCl solution, simulated gastric fluid, thermodynamic from solid, pH 1.2 HCl, read-out: Solubility, Piperine Conc.) is 9 ± 0.6 µg/mL (≈ 31.5 µM); in series [1] (aqueous buffer, thermodynamic from solid, pH 6.8 phosphate buffer, read-out: Solubility, Piperine Conc.), 8 ± 0.4 µg/mL (≈ 28 µM). Further, the Solubility classification entry in series [1] was “practically insoluble”. Also, the “Permeability, Piperine Conc. in the acceptor solution” value is 0.0044 ± 0.0008 ^g mg/mL in series [2] and 0.0051 ± 0.0003 ^f mg/mL in series [3]. Further, in series [4], the Glass-forming ability result is recorded as “good glass-forming ability”. Besides, the Log P (commonly a log measure of how a compound divides between an organic and an aqueous phase) in series [5] is 2.78.
